Bounds are passed on as bounds.

One test addresses T1, IRAK4 (Homo sapiens, UniProt Q9NWZ3).
T1 construct: endogenous in cells; host or cells: OCI-LY10
T1 sequence (Q9NWZ3 1-460): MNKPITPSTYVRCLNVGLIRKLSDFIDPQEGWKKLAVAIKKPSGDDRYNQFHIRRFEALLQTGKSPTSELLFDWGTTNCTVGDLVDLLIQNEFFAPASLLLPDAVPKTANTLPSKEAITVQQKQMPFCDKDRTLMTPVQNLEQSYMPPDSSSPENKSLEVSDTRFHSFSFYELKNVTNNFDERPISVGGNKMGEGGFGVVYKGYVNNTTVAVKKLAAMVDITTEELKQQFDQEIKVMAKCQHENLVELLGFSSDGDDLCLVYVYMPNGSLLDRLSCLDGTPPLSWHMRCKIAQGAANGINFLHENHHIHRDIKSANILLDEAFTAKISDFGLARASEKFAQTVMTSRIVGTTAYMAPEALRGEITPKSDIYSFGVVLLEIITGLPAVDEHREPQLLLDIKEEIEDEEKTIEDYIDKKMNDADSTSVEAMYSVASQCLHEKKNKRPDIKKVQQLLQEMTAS
Put plainly: IRAK4 MSD Degradation in OCI-LY10. Type of test: cell-based. Particulars: OCI-LY10 cells, 4 hrs incubation, read-out: IRAK4 degradation in OCI-LY10 at 4 hrs: DC50. The method, then: Degradation of IRAK4 in OCI-LY10 was quantitatively measured using Meso Scale Discovery technology. […] Compounds were then added to the assay plates with a final top concentration of 1 to 10 μM in a 1:3 dilution series with total of 8 doses. The assay plates were then incubated for 4 to 24 hours at 37° C. under 5% C02. […] To prepare MSD assay plates (Meso Scale Discovery Catalog number L15XA-3), the plates were coated with […] capture antibody (mouse Anti-IRAK4 antibody [2H9], ab119942) in PBS, at 40 μL/well. […] Cell lysates were then added to MSD assay plates and the plates were incubated at room temperature for 1 hour. The plates were then washed 3 times with 150 μL/well TBST buffer and 25 μL/well primary detection antibody (rabbit Anti-IRAK4 antibody [Y279], from Abcam. Catalog number ab32511, 1 μg/mL). The assay plates were then incubated at room temperature for 1 hour, washed 3 times with 150 μL/well TBST buffer and 25 μL/well secondary detection antibody, SULFO-TAG anti-rabbit antibody were added (anti rabbit antibody from Meso Scale Discovery, Catalog number R32AB-1, 1 μg/mL). The assay plates were then incubated at room temperature for 1 hour, washed 3 times with 150 μL/well TBST buffer, and 150 μL/well MSD reading buffer (Meso Scale Discovery catalog number R92TC-2) was added. The plates were then analyzed by a MSD reader (Meso Scale Discovery, Model Quick Plex SQ 120). The data was then analyzed by software Prism 7.0 from GraphPad and the dose-depended IRAK4 degradation were fit using a three-parameter logistic equation to calculate DC50.
The letter codes for IRAK4 […] include: A (<0.05 μM); B (0.05-0.1 μM); C (0.1-0.5 μM); D (0.5-1.0 μM); and E (>1.0 μM).
One may read the DC50 as the midpoint of the concentration-degradation curve. As to `Cn1c(=O)n(C2CCC(=O)NC2=O)c2cccc(CC3CC4(CCN(C[C@H]5CC[C@H](n6cc7cc(NC(=O)c8cccc(C(F)(F)F)n8)c(C(C)(C)O)cc7n6)CC5)CC4)C3)c21` (some centres unmarked) [I-56], the DC50 is < 50 nM. The same measure, in the same setting: the figure for `Cn1c(=O)n(C2CCC(=O)NC2=O)c2cccc(CN3CC4(CCN(C[C@H]5CC[C@H](n6cc7cc(NC(=O)c8cccc(C(F)(F)F)n8)c(C(C)(C)O)cc7n6)CC5)CC4)C3)c21` (some centres unmarked) [I-57] is < 50 nM; for `Cn1c(=O)n(C2CCC(=O)NC2=O)c2cccc(C#CCCCNC[C@H]3CC[C@H](n4cc5cc(NC(=O)c6cccc(C(F)(F)F)n6)c(C(C)(C)O)cc5n4)CC3)c21` (some centres unmarked) [I-60, N-[2-[4-[[5-[1-(2,6-dioxo-3-piperidyl)-3-methyl-2-oxo-benzimidazol-4-yl]pent-4-ynylamino]methyl]cyclohexyl]-6-(1-hydroxy-1-methyl-ethyl)indazol-5-yl]-6-(trifluoromethyl)pyridine-2-carboxamide] it is < 50 nM; for `Cn1c(=O)n(C2CCC(=O)NC2=O)c2ccc(C#CCCCNC[C@H]3CC[C@H](n4cc5cc(NC(=O)c6cccc(C(F)(F)F)n6)c(C(C)(C)O)cc5n4)CC3)cc21` (some centres unmarked) [I-61, N-[2-[4-[[5-[1-(2,6-dioxo-3-piperidyl)-3-methyl-2-oxo-benzimidazol-5-yl]pent-4-ynylamino]methyl]cyclohexyl]-6-(1-hydroxy-1-methyl-ethyl)indazol-5-yl]-6-(trifluoromethyl)pyridine-2-carboxamide] it is < 50 nM. On to `Cn1c(=O)n(C2CCC(=O)NC2=O)c2cccc(C[C@H]3CC[C@H](N(C)C[C@H]4CC[C@H](n5cc6cc(NC(=O)c7cccc(C(F)(F)F)n7)c(C(C)(C)O)cc6n5)CC4)CC3)c21` (some centres unmarked) [I-62], for which the DC50 is < 50 nM. Still for that read-out and setting: to `Cn1c(=O)n(C2CCC(=O)NC2=O)c2cccc(CN3CCC(OC4CCN(C[C@H]5CC[C@H](n6cc7cc(NC(=O)c8cccc(C(F)(F)F)n8)c(C(C)(C)O)cc7n6)CC5)CC4)CC3)c21` (some centres unmarked) [I-66] belongs < 50 nM; to `CN(CCCC#Cc1ccc2c(c1)n(C)c(=O)n2C1CCC(=O)NC1=O)C[C@H]1CC[C@H](n2cc3cc(NC(=O)c4cccc(C(F)(F)F)n4)c(C(C)(C)O)cc3n2)CC1` (some centres unmarked) [I-67, N-(2-((1r,4r)-4-(((5-(1-(2,6-dioxopiperidin-3-yl)-3-methyl-2-oxo-2,3-dihydro-1H-benzo[d]imidazol-5-yl)pent-4-yn-1-yl)(methyl)amino)methyl)cyclohexyl)-6-(2-hydroxypropan-2-yl)-2H-indazol-5-yl)-6-(trifluoromethyl)picolinamide], < 50 nM.

The test is the same for the next values; noted with them: OCI-LY10 cells, 24 hrs incubation, read-out: IRAK4 degradation in OCI-LY10 at 24 hrs: DC50.
With `CN(C[C@H]1CC[C@H](n2cc3cc(NC(=O)c4cccc(C(C)(C)F)n4)c(C(C)(C)O)cc3n2)CC1)[C@H]1CC[C@H](CNc2cccc3c2C(=O)N(C2CCC(=O)NC2=O)C3=O)CC1` (some centres unmarked) [I-58], the DC50 lay within 50 to 100 nM. On to `CC(C)(O)c1cc2nn([C@H]3CC[C@H](CN4CCC(COCCCNc5cccc6c5C(=O)N(C5CCC(=O)NC5=O)C6=O)CC4)CC3)cc2cc1NC(=O)c1cccc(C(C)(C)F)n1` (some centres unmarked) [I-59], for which the DC50 lay within 50 to 100 nM. Still for that read-out and setting: to `CC(C)(O)c1cc2nn([C@H]3CC[C@H](CN4CCO[C@H](CCCNc5cccc6c5C(=O)N(C5CCC(=O)NC5=O)C6=O)C4)CC3)cc2cc1NC(=O)c1cccc(C(F)(F)F)n1` (some centres unmarked) [I-64] belongs < 50 nM; to `CC(C)(O)c1cc2nn([C@H]3CC[C@H](CN4CCO[C@@H](CCNc5cccc6c5C(=O)N(C5CCC(=O)NC5=O)C6=O)C4)CC3)cc2cc1NC(=O)c1cccc(C(F)(F)F)n1` (some centres unmarked) [I-65], < 50 nM. In the case of `COc1cc2nn([C@H]3CC[C@H](CN4CCO[C@H](CCCNc5cccc6c5C(=O)N(C5CCC(=O)NC5=O)C6=O)C4)CC3)cc2cc1NC(=O)c1cccc(C(F)(F)F)n1` (some centres unmarked) [I-68], the DC50 is 50 to 100 nM. On to `COc1cc2nn([C@H]3CC[C@H](CN4CCC(O[C@H]5CC[C@H](CNc6cccc7c6C(=O)N(C6CCC(=O)NC6=O)C7=O)CC5)CC4)CC3)cc2cc1NC(=O)c1cccc(C(F)(F)F)n1` (some centres unmarked) [I-69], for which the DC50 lay in the range of 50 to 100 nM. Still for that read-out and setting: the figure for `CN(CCCO[C@H]1C[C@H](Nc2cccc3c2C(=O)N(C2CCC(=O)NC2=O)C3=O)C1)C[C@H]1CC[C@H](n2cc3cc(NC(=O)Cc4cccc(C(F)(F)F)n4)c(C(C)(C)O)cc3n2)CC1` (some centres unmarked) [I-70] is 500 to 1000 nM.

The values are drawn from US12545659B2, “IRAK degraders and uses thereof” (Kymera Therapeutics, Inc., priority 2019, dated 2026).
